Test results: PubChem BioAssay (NCI)
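Cultured in 96-well plates, cells were exposed to test compound for 48 hours across five concentrations. TGI is the concentration that stops growth completely.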

Experiments:
Test in all cases: DTP human tumour cell line panel, 48 h
NCI/ADR-RES ovarian = system: NCI/ADR-RES ovarian
HCT-15 colon = system: HCT-15 colon
DU-145 prostate = system: DU-145 prostate
786-0 renal = system: 786-0 renal
KM12 colon = system: KM12 colon
OVCAR-4 ovarian = system: OVCAR-4 ovarian
UO-31 renal = system: UO-31 renal
HCT-116 colon = system: HCT-116 colon
RPMI-8226 leukemia = system: RPMI-8226 leukemia
SW-620 colon = system: SW-620 colon
OVCAR-3 ovarian = system: OVCAR-3 ovarian
SNB-19 CNS = system: SNB-19 CNS
A549 NSCLC = system: A549 NSCLC
SK-OV-3 ovarian = system: SK-OV-3 ovarian
HOP-92 NSCLC = system: HOP-92 NSCLC
HL-60(TB) leukemia = system: HL-60(TB) leukemia
MCF7 breast = system: MCF7 breast
OVCAR-8 ovarian = system: OVCAR-8 ovarian
NCI-H226 lung = system: NCI-H226 lung
NCI-H460 lung = system: NCI-H460 lung
NCI-H522 lung = system: NCI-H522 lung
HOP-62 NSCLC = system: HOP-62 NSCLC
MALME-3M melanoma = system: MALME-3M melanoma
NCI-H23 lung = system: NCI-H23 lung
SK-MEL-2 melanoma = system: SK-MEL-2 melanoma
M14 melanoma = system: M14 melanoma
COLO 205 colon = system: COLO 205 colon
SF-295 CNS = system: SF-295 CNS
U251 CNS = system: U251 CNS
SF-539 CNS = system: SF-539 CNS
MOLT-4 leukemia = system: MOLT-4 leukemia
RXF 393 renal = system: RXF 393 renal
IGROV1 ovarian = system: IGROV1 ovarian
SNB-75 CNS = system: SNB-75 CNS
PC-3 prostate = system: PC-3 prostate
MDA-N = system: MDA-N
LOX IMVI melanoma = system: LOX IMVI melanoma
UACC-257 melanoma = system: UACC-257 melanoma
EKVX NSCLC = system: EKVX NSCLC
A498 renal = system: A498 renal
CAKI-1 renal = system: CAKI-1 renal
UACC-62 melanoma = system: UACC-62 melanoma
T-47D breast = system: T-47D breast
SN12C renal = system: SN12C renal
HCC-2998 colon = system: HCC-2998 colon
CCRF-CEM leukemia = system: CCRF-CEM leukemia
K-562 leukemia = system: K-562 leukemia
OVCAR-5 ovarian = system: OVCAR-5 ovarian
SK-MEL-5 melanoma = system: SK-MEL-5 melanoma
HT29 colon = system: HT29 colon
SK-MEL-28 melanoma = system: SK-MEL-28 melanoma
BT-549 breast = system: BT-549 breast
SF-268 CNS = system: SF-268 CNS
MDA-MB-435 = system: MDA-MB-435
ACHN renal = system: ACHN renal
MDA-MB-231 breast = system: MDA-MB-231 breast
HS 578T breast = system: HS 578T breast
TK-10 renal = system: TK-10 renal

## Cc1c2ccccc2c(C2C3C(=O)N(c4ccc(Br)cc4)C(=O)C3ON2C(C(N)=O)c2ccccc2)c2ccccc12 (stereo not given)
NCI/ADR-RES ovarian
  TGI: 41.4 µM
HCT-15 colon
  TGI: 18.7 µM
DU-145 prostate
  TGI: 26.7 µM
786-0 renal
  TGI: 33.1 µM
KM12 colon
  TGI: 22.1 µM
OVCAR-4 ovarian
  TGI: > 100 µM
UO-31 renal
  TGI: 34.6 µM
HCT-116 colon
  TGI: > 100 µM
RPMI-8226 leukemia
  TGI: 4.63 µM
SW-620 colon
  TGI: > 100 µM
OVCAR-3 ovarian
  TGI: 12.2 µM
SNB-19 CNS
  TGI: 22.6 µM
A549 NSCLC
  TGI: 14.1 µM
SK-OV-3 ovarian
  TGI: 46 µM
HOP-92 NSCLC
  TGI: 39.4 µM
HL-60(TB) leukemia
  TGI: 14 µM
MCF7 breast
  TGI: 24.4 µM
OVCAR-8 ovarian
  TGI: 48 µM
NCI-H226 lung
  TGI: 30 µM
NCI-H460 lung
  TGI: 22.2 µM
NCI-H522 lung
  TGI: 9 µM
HOP-62 NSCLC
  TGI: 36.1 µM
MALME-3M melanoma
  TGI: 34.1 µM
NCI-H23 lung
  TGI: 26.9 µM
SK-MEL-2 melanoma
  TGI: 30.3 µM
M14 melanoma
  TGI: > 100 µM
COLO 205 colon
  TGI: 3.33 µM
SF-295 CNS
  TGI: 58.5 µM
U251 CNS
  TGI: 8.94 µM
SF-539 CNS
  TGI: 17.7 µM
MOLT-4 leukemia
  TGI: > 100 µM
RXF 393 renal
  TGI: 37.3 µM
IGROV1 ovarian
  TGI: 18.2 µM
SNB-75 CNS
  TGI: 17.3 µM
PC-3 prostate
  TGI: > 100 µM
MDA-N
  TGI: 35.1 µM
LOX IMVI melanoma
  TGI: 18.6 µM
UACC-257 melanoma
  TGI: 62.4 µM
EKVX NSCLC
  TGI: 31.7 µM
A498 renal
  TGI: 11.7 µM
CAKI-1 renal
  TGI: 21.3 µM
UACC-62 melanoma
  TGI: 40.4 µM
T-47D breast
  TGI: 36.4 µM
SN12C renal
  TGI: 53.5 µM
HCC-2998 colon
  TGI: 26.6 µM
CCRF-CEM leukemia
  TGI: 22.4 µM
K-562 leukemia
  TGI: > 100 µM
OVCAR-5 ovarian
  TGI: 23.2 µM
SK-MEL-5 melanoma
  TGI: 11.9 µM
HT29 colon
  TGI: 7.35 µM
SK-MEL-28 melanoma
  TGI: 74.6 µM
BT-549 breast
  TGI: 43.4 µM
SF-268 CNS
  TGI: > 100 µM
MDA-MB-435
  TGI: 12.9 µM
ACHN renal
  TGI: 17.3 µM

## CC1CC(N)=C(C#N)C1(C#N)C#N (stereo not given)
NCI/ADR-RES ovarian
  TGI: > 100 µM
HCT-15 colon
  TGI: > 100 µM
DU-145 prostate
  TGI: > 100 µM
786-0 renal
  TGI: > 100 µM
KM12 colon
  TGI: > 100 µM
UO-31 renal
  TGI: > 100 µM
HCT-116 colon
  TGI: > 100 µM
RPMI-8226 leukemia
  TGI: > 100 µM
SW-620 colon
  TGI: > 100 µM
SNB-19 CNS
  TGI: > 100 µM
A549 NSCLC
  TGI: > 100 µM
SK-OV-3 ovarian
  TGI: > 100 µM
HOP-92 NSCLC
  TGI: > 100 µM
HL-60(TB) leukemia
  TGI: > 100 µM
MCF7 breast
  TGI: > 100 µM
OVCAR-8 ovarian
  TGI: > 100 µM
NCI-H226 lung
  TGI: > 100 µM
NCI-H522 lung
  TGI: > 100 µM
MALME-3M melanoma
  TGI: > 100 µM
NCI-H23 lung
  TGI: > 100 µM
SK-MEL-2 melanoma
  TGI: > 100 µM
M14 melanoma
  TGI: > 100 µM
COLO 205 colon
  TGI: > 100 µM
MDA-MB-231 breast
  TGI: > 100 µM
SF-295 CNS
  TGI: > 100 µM
U251 CNS
  TGI: > 100 µM
SF-539 CNS
  TGI: > 100 µM
MOLT-4 leukemia
  TGI: > 100 µM
RXF 393 renal
  TGI: > 100 µM
IGROV1 ovarian
  TGI: > 100 µM
HS 578T breast
  TGI: > 100 µM
SNB-75 CNS
  TGI: > 100 µM
PC-3 prostate
  TGI: > 100 µM
MDA-N
  TGI: > 100 µM
LOX IMVI melanoma
  TGI: > 100 µM
UACC-257 melanoma
  TGI: > 100 µM
EKVX NSCLC
  TGI: > 100 µM
A498 renal
  TGI: > 100 µM
CAKI-1 renal
  TGI: 59.7 µM
UACC-62 melanoma
  TGI: > 100 µM
T-47D breast
  TGI: > 100 µM
TK-10 renal
  TGI: > 100 µM
SN12C renal
  TGI: > 100 µM
HCC-2998 colon
  TGI: > 100 µM
K-562 leukemia
  TGI: > 100 µM
OVCAR-5 ovarian
  TGI: > 100 µM
HT29 colon
  TGI: > 100 µM
SF-268 CNS
  TGI: > 100 µM
MDA-MB-435
  TGI: > 100 µM
ACHN renal
  TGI: > 100 µM
